US20130005676A1 (UNIVERSITY OF ROCHESTER, priority 2009, published 2013)
Entries after “also recorded” stand apart in the source; their conditions may differ.

How the values were obtained:
adenosine kinase [1] = target: T1, adenosine kinase (Homo sapiens, UniProt P55263); conditions: cited from earlier work
[2] = system: enzymes involved in extracellular degradation of AMP; assay: Phosphate production (Malachite Green) in tissue sections from the Zusanli point; assay type: biochemical, mice; conditions: for rate of phosphate generation: 1 mM added as substrate, n=3; for dephosphorylation of AMP (phosphate production): inhibitor 500 μM, tissue in 1 mM AMP for 45 min
Ecto-ATPase [3] = conditions: cited from earlier work
Rat Parotid Ecto-ATPase = conditions: cited from earlier work
P2 receptors = conditions: cited from earlier work
Ecto-ATPase [4] = conditions: Crack et al.; cited from earlier work
[5] = system: mice with inflammatory or neuropathic pain; assay: Statements covering both inflammatory and neuropathic pain models; assay type: in vivo; conditions: both pain models
Protocol: Peripheral inflammation was induced by injection of Complete Freud Adjuvant (CFA, mixed with an equal amount of oil, total volume 0.1 ml) in the plantar surface of the left hind paw of mice (25-30 g, Jackson labs) (Raghavendra et al., “Complete Freunds Adjuvant-Induced Peripheral Inflammation Evokes Glial Activation and Proinflammatory Cytokine Expression in the CNS,” Eur. J. Neurosci. 20:467-473 (2004), which is hereby incorporated by reference in its entirety). An equal amount of saline (0.1 ml) was injected in the right hind paw as control. […]
Mechanical allodynia was evaluated using repeated stimulations with a Von Frey filament exerting 0.02 grams of force onto the plantar surface (Colburn et al., “The Effect of Site and Type of Nerve Injury on Spinal Glial Activation and Neuropathic Pain Behavior,” Exp. Neurol. 157:289-304. (1999), which is hereby incorporated by reference in its entirety). The percentage of negative responses of a total of 10 trials was calculated for each foot. Thermal hyperalgesia was assessed using an Analgesymeter (Ugo Basile, Comerio, Italy) (Stein et al., “Intrinsic Mechanisms of Antinociception in Inflammation: Local Opioid Receptors and Beta-Endorphin,” J. Neurosci. 10:1292-1298 (1990), which is hereby incorporated by reference in its entirety). […] The paw withdrawal was repeated three times for each foot and the average calculated. […] Behavioral parameters were evaluated prior to intraplantar injection of CFA or nerve ligation (i.e. day 0), and again on day 3-4 in mice receiving the CFA injection, and at day 5-7 in mice with nerve ligation unless otherwise noted. […]

[6] = system: mice with inflammatory pain (CFA); assay: Inflammatory pain (CFA in paw): mechanical allodynia (Von Frey) and thermal hyperalgesia; assay type: in vivo
Description: Peripheral inflammation was induced by injection of Complete Freud Adjuvant (CFA, mixed with an equal amount of oil, […], Jackson labs) (Raghavendra et al., “Complete Freunds Adjuvant-Induced Peripheral Inflammation Evokes Glial Activation and Proinflammatory Cytokine Expression in the CNS,” Eur. J. Neurosci. 20:467-473 (2004), which is hereby incorporated by reference in its entirety). […] Neuropathic pain was induced by ligation of the sciatic nerve with 4.0 polypropylene suture in mice sedated with ketamine (60 mg/kg, i.p.) and xylazine (10 mg/kg, i.p.) (Bennett et al., “A Peripheral Mononeuropathy in Rat that Produces Disorders of Pain Sensation Like Those Seen in Man,” Pain 33:87-107 (1988); Martucci et al., “The Purinergic Antagonist PPADS Reduces Pain Related Behaviours and Interleukin-1 beta, Interleukin-6, iNOS and nNOS Overproduction in Central and Peripheral Nervous System After Peripheral Neuropathy in Mice,” Pain 137:81-95 (2008), which are hereby incorporated by reference in their entirety).
Mechanical allodynia was evaluated using repeated stimulations with a Von Frey filament exerting 0.02 grams of force onto the plantar surface (Colburn et al., “The Effect of Site and Type of Nerve Injury on Spinal Glial Activation and Neuropathic Pain Behavior,” Exp. Neurol. 157:289-304. (1999), which is hereby incorporated by reference in its entirety). The percentage of negative responses of a total of 10 trials was calculated for each foot. Thermal hyperalgesia was assessed using an Analgesymeter (Ugo Basile, Comerio, Italy) (Stein et al., “Intrinsic Mechanisms of Antinociception in Inflammation: Local Opioid Receptors and Beta-Endorphin,” J. Neurosci. 10:1292-1298 (1990), which is hereby incorporated by reference in its entirety). In short, a mobile radiant heat source was focused on the hind paw, and the paw withdrawal latencies were defined as the time taken by the mouse to remove its hind paw from the heat source (max 20 sec to avoid tissue damage). The paw withdrawal was repeated three times for each foot and the average calculated. To avoid conditioning to stimulation a 5 min rest period was interposed between each trial in both thermal and mechanical tests. Behavioral parameters were evaluated prior to intraplantar injection of CFA or nerve ligation (i.e. day 0), and again on day 3-4 in mice receiving the CFA injection, and at day 5-7 in mice with nerve ligation unless otherwise noted. Prior to injection of CCPA, saline, or acupuncture in the Zusanli point, the mice were placed in a restraining under light isoflurane anesthesia (˜1%). The total duration of anesthesia was ˜2 min and mice with inflammatory, neurogenic pain, and their controls were treated similarly. 2-chloro-N6-cyclopentyl-adenosine (CCPA, 0.1 mM, 20 μl) was injected in the Zusanli point ˜5 min before acupuncture. […] The needle was slowly rotated ˜2 time (˜20-30 sec) every 5 min for a total of 30 min during an acupuncture session. A microdialysis probe (MD-2211, Bioanalytical systems, West Lafayette, Ind.) was implanted 1-3 hrs prior to collection of microdialysis samples. The microdialysis probe was implanted in a distance of 0.4-0.6 mm from the Zusanli point. The microdialysis probe was perfused with Ringer's solution at a rate of 1 μl per minute. The microdialysates were collected on ice and the perfusate collected over a 30 min period (30 μl) was immediately frozen at −80° C. until HPLC analysis. Deoxycoformycin was administered in a dose of 50 mg/kg i.p. 30 min prior to acupuncture.

[7] = system: fEPSP in anterior cingulate cortex; assay: In vivo electrophysiology: fEPSP in left anterior cingulate cortex evoked by painful foot shock; parameters: species or system mice
Protocol: Mice were anaesthetized with 2-3% isoflurane, intubated, and artificially ventilated with a small animal ventilator (SAAR-830, CWE). Body temperature was monitored by a rectal probe and maintained at 37° C. by a heating blanket (BS4, Harvard Apparatus). A craniotomy (1-1.5 mm in diameter), centered 0.1 mm anterior to the bregma and 1.5 mm lateral from midline, was made over the left anterior cingulated cortex. A custom-made metal plate was glued to the skull with dental acrylic cement. The mice were for the remaining part of the experiment maintained at 2% isoflurane. LFP recordings were obtained from layer 4 of anterior cingulate cortex (ACC), 0.8 mm below the pial surface by a patch pipette (TW100E-4, WPI; outer diameter, 1.0 mm; inner diameter, 0.75 mm; tip diameter, 1-2 μm). […] Dura matter was kept intact. A custom-made bipolar electrode was inserted subcutaneously into the right hindpaw. High intensity stimulation (10 mA, 20 ms) were evoked every 120 sec. Lower stimulation intensities evoked either no or variable responses consistent with the idea that that ACC neurons respond primarily to painful stimuli Wei et al., “Potentiation of Sensory Responses in the Anterior Cingulate Cortex Following Digit Amputation in the Anaesthetised Rat,” J. Physiol. 532:823-833 (2001), which is hereby incorporated by reference in its entirety). The amplitude of the field EPSPs was measured using the pCLAMP 9.2 program (Axon Instruments, Inc., Foster City, Calif., USA).

[8] = system: mice with neuropathic pain; assay: Neuropathic pain (sciatic nerve ligation): mechanical allodynia and thermal hyperalgesia; assay type: in vivo
Protocol: Peripheral inflammation was induced by injection of Complete Freud Adjuvant (CFA, mixed with an equal amount of oil, total volume 0.1 ml) in the plantar surface of the left hind paw of mice (25-30 g, Jackson labs) (Raghavendra et al., “Complete Freunds Adjuvant-Induced Peripheral Inflammation Evokes Glial Activation and Proinflammatory Cytokine Expression in the CNS,” Eur. J. Neurosci. 20:467-473 (2004), which is hereby incorporated by reference in its entirety). An equal amount of saline (0.1 ml) was injected in the right hind paw as control. Neuropathic pain was induced by ligation of the sciatic nerve with 4.0 polypropylene suture in mice sedated with ketamine (60 mg/kg, i.p.) and xylazine (10 mg/kg, i.p.) (Bennett et al., “A Peripheral Mononeuropathy in Rat that Produces Disorders of Pain Sensation Like Those Seen in Man,” Pain 33:87-107 (1988); Martucci et al., “The Purinergic Antagonist PPADS Reduces Pain Related Behaviours and Interleukin-1 beta, Interleukin-6, iNOS and nNOS Overproduction in Central and Peripheral Nervous System After Peripheral Neuropathy in Mice,” Pain 137:81-95 (2008), which are hereby incorporated by reference in their entirety).
Mechanical allodynia was evaluated using repeated stimulations with a Von Frey filament exerting 0.02 grams of force onto the plantar surface (Colburn et al., “The Effect of Site and Type of Nerve Injury on Spinal Glial Activation and Neuropathic Pain Behavior,” Exp. Neurol. 157:289-304. (1999), which is hereby incorporated by reference in its entirety). The percentage of negative responses of a total of 10 trials was calculated for each foot. Thermal hyperalgesia was assessed using an Analgesymeter (Ugo Basile, Comerio, Italy) (Stein et al., “Intrinsic Mechanisms of Antinociception in Inflammation: Local Opioid Receptors and Beta-Endorphin,” J. Neurosci. 10:1292-1298 (1990), which is hereby incorporated by reference in its entirety). In short, a mobile radiant heat source was focused on the hind paw, and the paw withdrawal latencies were defined as the time taken by the mouse to remove its hind paw from the heat source (max 20 sec to avoid tissue damage). The paw withdrawal was repeated three times for each foot and the average calculated. To avoid conditioning to stimulation a 5 min rest period was interposed between each trial in both thermal and mechanical tests. Behavioral parameters were evaluated prior to intraplantar injection of CFA or nerve ligation (i.e. day 0), and again on day 3-4 in mice receiving the CFA injection, and at day 5-7 in mice with nerve ligation unless otherwise noted. Prior to injection of CCPA, saline, or acupuncture in the Zusanli point, the mice were placed in a restraining under light isoflurane anesthesia (˜1%). […]

adenosine transport = adenosine transport inhibitors; unit inferred; cited from earlier work
adenosine kinase [9] = target: T1, adenosine kinase; conditions: adenosine as substrate; cited from earlier work

T1 sequence (P55263 whole entry, species assumed): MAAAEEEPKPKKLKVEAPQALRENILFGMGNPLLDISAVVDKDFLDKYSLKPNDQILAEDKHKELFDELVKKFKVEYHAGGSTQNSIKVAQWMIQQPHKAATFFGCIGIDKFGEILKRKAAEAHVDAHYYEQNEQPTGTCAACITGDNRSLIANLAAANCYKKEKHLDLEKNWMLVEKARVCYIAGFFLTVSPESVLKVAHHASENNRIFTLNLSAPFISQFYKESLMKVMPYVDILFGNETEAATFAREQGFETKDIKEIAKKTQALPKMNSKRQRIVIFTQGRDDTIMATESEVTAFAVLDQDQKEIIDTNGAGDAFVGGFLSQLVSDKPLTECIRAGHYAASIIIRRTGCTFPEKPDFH

Compound: Nc1ncnc2c1c(Br)cn2[C@@H]1C[C@H](N)[C@@H](O)[C@H]1O [A-286501, N7-((1′R,2′S,3′R,4′S)-2′,3′-dihydroxy-4′-amino-cyclopentyl)-4-amino-5-bromo-pyrrolo[2,3-a]pyrimidine]
- IC50 (adenosine kinase [1]): 0.00047 µM

Compound: Nc1ncnc2c1ncn2[C@@H]1O[C@H](COP(=O)(O)O)[C@@H](O)[C@H]1O [AMP]
- rate of phosphate generation [2]: 0.043 ± 0.005 µM/mg/min

Compound: Nc1ncnc2c1ncn2[C@@H]1O[C@H](COP(=O)(O)CP(=O)(O)O)[C@@H](O)[C@H]1O [AOPCP]
- dephosphorylation of AMP (phosphate production) [2]: did not reduce dephosphorylation of AMP

Compound: CCN(CC)c1ncnc2c1ncn2[C@@H]1O[C@H](COP(=O)(O)OP(=O)(O)C(Br)(Br)P(=O)(O)O)[C@@H](O)[C@H]1O [ARL67156]
- Ki (Ecto-ATPase [3]): 0.255 µM
- IC50 (Rat Parotid Ecto-ATPase): 120 µM
- effect on P2 receptors (P2 receptors): lack of or only has weak effect
- IC50 (Ecto-ATPase [4]): 4.6 µM

Compound: Nc1ncnc2c1ncn2[C@@H]1O[C@H](COP(=O)(O)OP(=O)(O)OP(=O)(O)O)[C@@H](O)[C@H]1O [ATP]
- rate of phosphate generation [2]: 0.428 ± 0.046 µM/mg/min

Compound: OC[C@H]1O[C@@H](n2cnc3c(NC4CCCC4)nc(Cl)nc32)[C@H](O)[C@@H]1O [CCPA, 2-chloro-N(6)-cyclopentyladenosine]
- course of the pain-relieving effect [5]: transient
- sensitivity to painful stimulation in the contralateral (left) leg ([5]; injection in right Zusanli point): did not alter sensitivity
- mechanical and thermal hypersensitivity / pain threshold in right foot ([6]; 0.1 mM, 20 μl injected in the left (contralateral) Zusanli point): no effect; also recorded: did not alter the pain threshold
- mechanical and thermal pain in mice with deletion of A1 receptors ([6]; A1R KO mice): no clinical benefit
- paw withdrawal (thermal) ([6]; WT mice, after 0.1 mM, 20 μl in right Zusanli point, before: 3.7±0.3): 12.7 ± 1.5 s
- touch sensitivity (percentage of negative responses of 10 Von Frey trials) ([6]; WT mice, after 0.1 mM, 20 μl in right Zusanli point, before: 38.0±2.5): 85.7±2.0%
- fEPSP response in mice with deletion of A1 receptors ([7]; A1R KO mice): failed to respond
- fEPSP amplitude ([7]; WT, 0.1 mM 20 μl in right Zusanli point (ipsilateral), within 20 min, before ~0.65 mV): ~0.22 mV
- fEPSP amplitude, % of baseline values ([7]; WT, ipsilateral injection, within 20 min): 26.6±11.0%
- effect on fEPSP ([7]; administered contralateral to the painful stimulation): no effect
- withdrawal of foot (thermal) ([8]; WT mice, after injection in Zusanli point, before: 2.9±0.3): 16.2 ± 2.4 s
- touch sensitivity (percentage of negative responses of 10 Von Frey trials) ([8]; WT mice, after injection in Zusanli point, before: 25.0±2.2): 83.3±4.9%
- mechanical and thermal hypersensitivity / pain threshold in right foot ([8]; injected in the left (contralateral) Zusanli point): no effect; also recorded: did not alter the pain threshold

Compound: O=S(=O)(NCCNC/C=C/c1ccc(Br)cc1)c1cccc2cnccc12 [H-89]
- CFA-induced mechanical pain hypersensitivity, contralateral paw ([6]; injected in the Zusanli point): not the contralateral paw
- CFA-induced mechanical pain hypersensitivity, ipsilateral (right leg) ([6]; injected in the Zusanli point): transiently and significantly reduced; also recorded: reduced pain temporarily

Compound: NC(=O)C1CN(CCCCC(c2ccc(F)cc2)c2ccc(F)cc2)CCN1CC(=O)Nc1c(Cl)cc(N)cc1Cl (centres unmarked) [R75231, 2-(aminocarbonyl)-N-(4-amino-2,6-dichlorophenyl)-4-[5,5-bis(4-fluorophenyl)pentyl]-1-piperazineacetamide]
- Ki (adenosine transport): 0.0001 µM

Compound: Nc1ncnc2c1ncn2[C@@H]1O[C@H](CO)[C@@H](O)[C@H]1O [adenosine]
- Km (adenosine kinase [9]): ~0.02 µM

Compound: [O]=[Mo](=[O])([O-])[O-] [molybdate]
- dephosphorylation of AMP (phosphate production) [2]: partly suppressed dephosphorylation of AMP
